Laboratory results published in ChEMBL document CHEMBL1201862, “PubChem BioAssay data set” (2004).
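Values below derive from 48-hour exposures of cells grown in 96-well plates, with endpoints linearly interpolated between the two concentrations bracketing the appropriate inhibition level. At the GI50, growth is halved.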 Activity calls are given as the source filed them. Rule as the data show it: active = GI50 up to about 1.1 µM and inactive = higher.

Key:
Assay in all cases: NCI anticancer screen, dose series, 48 h
[1] = system: SF-295
[2] = system: NCI/ADR-RES
[3] = system: PC-3
[4] = system: EKVX
[5] = system: HT-29
[6] = system: SR
[7] = system: SF-539
[8] = system: SK-MEL-2
[9] = system: HCT-15
[10] = system: T47D
[11] = system: A549
[12] = system: SN12C
[13] = system: HOP-62
[14] = system: SW-620
[15] = system: NCI-H460
[16] = system: UACC-62
[17] = system: DU-145
[18] = system: M14
[19] = system: 786-0
[20] = system: NCI-H522

SMILES	GI50 [1]	GI50 [2]	GI50 [3]	GI50 [4]	GI50 [5]	GI50 [6]	GI50 [7]	GI50 [8]	GI50 [9] [µM]	GI50 [10]	GI50 [11]	GI50 [12]	GI50 [13]	GI50 [14]	GI50 [15]	GI50 [16]	GI50 [17]	GI50 [18]	GI50 [19]	GI50 [20]
CCOP(=O)(OCC)C(C)(C)N(C)/C(F)=N/C(F)(F)F	> 100 µM (inactive)	> 100 µM (inactive)	> 100 µM (inactive)	> 100 µM (inactive)	> 100 µM (inactive)	> 100 µM (inactive)	> 100 µM (inactive)	> 100 µM (inactive)	> 100	> 100 µM (inactive)	> 100 µM (inactive)	> 100 µM (inactive)	> 100 µM (inactive)	> 100 µM (inactive)	> 100 µM (inactive)	> 100 µM (inactive)	> 100 µM (inactive)	> 100 µM (inactive)	> 100 µM (inactive)	
CCCCCCCCCCCC(=O)Oc1c(Cl)cc(Cl)c(OC(=O)C(=O)Oc2c(Cl)cc(Cl)c(OC(=O)CCCCCCCCCCC)c2Cl)c1Cl	> 100 µM (inactive)	> 100 µM (inactive)	> 100 µM (inactive)	> 100 µM (inactive)	> 100 µM (inactive)	> 100 µM (inactive)		> 10 µM (inactive)		> 100 µM (inactive)	> 100 µM (inactive)	> 100 µM (inactive)	> 100 µM (inactive)	> 100 µM (inactive)	> 100 µM (inactive)	> 100 µM (inactive)	> 100 µM (inactive)		> 100 µM (inactive)	> 100 µM (inactive)
CC(=O)C1COC(O)C1C (stereo not drawn)	26.1 µM (inactive)	18.5 µM (inactive)	20 µM (inactive)	38 µM (inactive)	29.4 µM (inactive)	11.5 µM (inactive)	17.5 µM (inactive)	15.3 µM (inactive)	18.5	35.2 µM (inactive)	53.8 µM (inactive)	20.7 µM (inactive)	16.3 µM (inactive)	18 µM (inactive)	18.3 µM (inactive)	14 µM (inactive)	28.3 µM (inactive)	23.9 µM (inactive)	21.3 µM (inactive)	
CN1N=C(c2ccncc2)OC1c1ccc(Cl)c(Cl)c1 (stereo not drawn)	> 100 µM (inactive)	> 100 µM (inactive)	> 100 µM (inactive)	> 100 µM (inactive)	60.8 µM (inactive)		> 100 µM (inactive)	> 100 µM (inactive)	> 100	> 100 µM (inactive)	> 100 µM (inactive)	> 100 µM (inactive)	> 100 µM (inactive)	> 100 µM (inactive)	> 100 µM (inactive)	> 100 µM (inactive)	> 100 µM (inactive)	> 100 µM (inactive)	83.6 µM (inactive)	> 100 µM (inactive)
O=c1c2cc([N+](=O)[O-])ccc2n2n1Cc1ccccc1C2	> 100 µM (inactive)	73.6 µM (inactive)	32.4 µM (inactive)	31.5 µM (inactive)	> 100 µM (inactive)	87.3 µM (inactive)	> 100 µM (inactive)		> 100	65.5 µM (inactive)	79.3 µM (inactive)	> 100 µM (inactive)	> 100 µM (inactive)	> 100 µM (inactive)	40.6 µM (inactive)	> 100 µM (inactive)	> 100 µM (inactive)		> 100 µM (inactive)	64.6 µM (inactive)
O=C1c2ccccc2C(=O)N1CCc1ncc[nH]1	> 100 µM (inactive)	> 100 µM (inactive)	> 100 µM (inactive)	> 100 µM (inactive)	> 100 µM (inactive)	> 100 µM (inactive)	> 100 µM (inactive)	> 100 µM (inactive)	> 100	> 100 µM (inactive)	> 100 µM (inactive)	> 100 µM (inactive)		> 100 µM (inactive)	> 100 µM (inactive)	> 100 µM (inactive)	> 100 µM (inactive)	> 100 µM (inactive)	> 100 µM (inactive)	> 100 µM (inactive)
COC(=O)Nc1nc2cc(Oc3ccc4nc(NC(=O)OC)[nH]c4c3)ccc2[nH]1	1.58 µM (inactive)	4.33 µM (inactive)	0.419 µM (active)	3.67 µM (inactive)	1.14 µM (inactive)	0.252 µM (active)	0.381 µM (active)	1.34 µM (inactive)	1.28	2.59 µM (inactive)	2.25 µM (inactive)	1.78 µM (inactive)	1.56 µM (inactive)	0.855 µM (active)	1.36 µM (inactive)		0.791 µM (active)	0.993 µM (active)	0.435 µM (active)	1.34 µM (inactive)
OCC1c2ccccc2-n2nc(-c3ccccc3)c(O)c21 (stereo not drawn)	38.5 µM (inactive)	18.6 µM (inactive)	17.6 µM (inactive)	29.2 µM (inactive)	30.6 µM (inactive)		43.1 µM (inactive)	15.9 µM (inactive)	14.9	22.3 µM (inactive)	44.2 µM (inactive)	17.6 µM (inactive)	41.9 µM (inactive)	29.3 µM (inactive)	29.9 µM (inactive)	20.7 µM (inactive)	68.5 µM (inactive)		18.2 µM (inactive)	22.1 µM (inactive)
